Source: patent publication US5488051A, “Substituted 5,6-dihydro-5-oxo-1,4-dithiino-(2,3-d)-pyridazine-2,3-dicarbonitriles, compositions containing them and their use as antimicrobials” (The Dow Chemical Company, priority 1994, dated 1996)
≈ marks a conversion by molar mass, not a printed value. Like-named read-outs stand apart in the source and are kept apart here.

Experiments:
[1] = tested on: Klebsiella pneumonias (Kp); experiment: MIC for Klebsiella pneumonias, nutrient agar; format: cell-based, Klebsiella pneumonias ATCC 8308; details: 30° C., 48 hours, read-out: Minimum Inhibitory Concentration (MIC), Kp
Outline: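 Overnight nutrient-broth cultures (24 h, 30° C, shaken) diluted to 10^8 CFU/mL and spotted with a Steer's Replicator onto compound-containing nutrient agar plates, neutral and alkaline pH. Incubation 48 h at 30° C; MIC read as the lowest level preventing visible growth.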

[2] = tested on: Fusarium oxysporum (Fo); experiment: MIC for Fusarium oxysporum, malt yeast agar; format: cell-based, Fusarium oxysporum ATCC 48112; details: malt yeast agar; 30° C., 72 hours for fungi; read-out: Minimum Inhibitory Concentration (MIC), Fo
Outline: (§1)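 Agar dilution on malt yeast agar with compound (from 1% acetone/water solution) at final 0, 1.0, 2.5, 5, 10, 25, 50, 100, 250, 500 ppm. Plates inoculated by replicator with saline suspensions (1:9 diluted) of 7-day cultures; incubated at 30 °C, read at 48 h for yeast and 72 h for fungi.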

[3] = tested on: Penicillium chrysogenum (Pc); experiment: MIC for Penicillium chrysogenum, malt yeast agar; format: cell-based, Penicillium chrysogenum ATCC 9480; details: malt yeast agar; 30° C., 72 hours for fungi; read-out: Minimum Inhibitory Concentration (MIC), PC
Outline: as §1

[4] = tested on: Aureobasidium pullulan (Ap); experiment: MIC for Aureobasidium pullulan, malt yeast agar; format: cell-based, Aureobasidium pullulan ATCC 16622; details: malt yeast agar; 30° C.; 48 hours for yeast and 72 hours for fungi; read-out: Minimum Inhibitory Concentration (MIC), Ap
Outline: as §1

[5] = tested on: Aspergillus niger (An); experiment: MIC for Aspergillus niger, malt yeast agar; format: cell-based, Aspergillus niger ATCC 16404; details: malt yeast agar; 30° C., 72 hours for fungi; read-out: Minimum Inhibitory Concentration (MIC), An
Outline: as §1

Row | Compound | MIC ([1]; pH 6.8, nutrient agar) | MIC ([1]; pH 8.2, nutrient agar) | MIC [2] | MIC [3] | MIC [4] | MIC [5]
1 | Cc1ccc(-n2ncc3c(c2=O)SC(C#N)=C(C#N)S3)cc1 [B, 5,6-dihydro-6-(4-methylphenyl)-5-oxo-1,4-dithiino-(2,3-d)-pyridazine-2,3-dicarbonitrile] | 50 µg/mL (≈ 154 µM) | > 500 µg/mL | 25 µg/mL (≈ 77.1 µM) | 25 µg/mL (≈ 77.1 µM) | < 10 µg/mL | 25 µg/mL (≈ 77.1 µM)
2 | N#CC1=C(C#N)Sc2c(cnn(-c3ccc(Br)cc3)c2=O)S1 [C, 5,6-dihydro-6-(4-bromophenyl)-5-oxo-1,4-dithiino-(2,3-d)-pyridazine-2,3-dicarbonitrile] | > 500 µg/mL | > 500 µg/mL | 10 µg/mL (≈ 25.7 µM) | 25 µg/mL (≈ 64.2 µM) | 10 µg/mL (≈ 25.7 µM) | 10 µg/mL (≈ 25.7 µM)
